According to ChEMBL document CHEMBL3870329, “Synthesis of peptide nucleic acids (PNA) with a crosslinking agent to RNA and effective inhibition of dicer” (Bioorg Med Chem Lett, 2016):
The source made the active and inactive calls. No cut-off for these calls is given here.

What was measured:
[1] = Binding affinity to 5'-end FAM-tagged GACACAATCCCAATCTGGTT DNA (unknown origin) assessed as change in melting temperature at 1.5 uM measured after 5 mins by UV spectrophotometry
[2] = Binding affinity to 5'-end FAM-tagged GACACAAUCCCAAUCUGGUU RNA (unknown origin) assessed as change in melting temperature at 1.5 uM measured after 5 mins by UV spectrophotometry
[3] = Binding affinity to 5'-end FAM-tagged GACGCAATCCCAATCTGGTT DNA (unknown origin) assessed as change in melting temperature at 1.5 uM measured after 5 mins by UV spectrophotometry
[4] = Binding affinity to 5'-end FAM-tagged GACTCAATCCCAATCTGGTT DNA (unknown origin) assessed as change in melting temperature at 1.5 uM measured after 5 mins by UV spectrophotometry
[5] = Binding affinity to 5'-end FAM-tagged GACCCAAUCCCAAUCUGGUU RNA (unknown origin) assessed as change in melting temperature at 1.5 uM measured after 5 mins by UV spectrophotometry
[6] = Binding affinity to 5'-end FAM-tagged GACUCAAUCCCAAUCUGGUU RNA (unknown origin) assessed as change in melting temperature at 1.5 uM measured after 5 mins by UV spectrophotometry
[7] = Binding affinity to 5'-end FAM-tagged GACCCAATCCCAATCTGGTT DNA (unknown origin) assessed as change in melting temperature at 1.5 uM measured after 5 mins by UV spectrophotometry
[8] = Binding affinity to 5'-end FAM-tagged GACGCAAUCCCAAUCUGGUU RNA (unknown origin) assessed as change in melting temperature at 1.5 uM measured after 5 mins by UV spectrophotometry
Nucleic Acid [9] = experiment: Binding affinity to synthetic 5'-fluorescein-labelled pre-miR-122 RNA site3 (unknown origin) assessed as heteroduplex formation at 4 uM measured after 48 hrs by non-denaturing PAGE analysis relative to control; type: nucleic-acid assay
Nucleic Acid [10] = experiment: Binding affinity to synthetic 5'-FAM-labelled pre-miR-122 RNA site3 (unknown origin) assessed as inhibition of human dicer-mediated digestion of pre-miR-122 RNA by measuring heteroduplex formation preincubated with RNA for 2 days followed by dicer addition measured after 2 hrs by denaturing PAGE analysis relative to control; type: nucleic-acid assay; details: concentration not given here
Nucleic Acid [11] = experiment: Binding affinity to synthetic 5'-FAM-labelled pre-miR-122 RNA site3 (unknown origin) assessed as heteroduplex formation at 4 uM measured after 2 hrs by denaturing PAGE analysis relative to control; type: nucleic-acid assay
Nucleic Acid [12] = experiment: Binding affinity to synthetic 5'-FAM-labelled pre-miR-122 RNA site3 (unknown origin) assessed as human dicer-mediated digestion of pre-miR-122 RNA preincubated with RNA for 2 days followed by dicer addition measured after 2 hrs by denaturing PAGE analysis; type: nucleic-acid assay
Nucleic Acid [13] = experiment: Binding affinity to 5'-end FAM-tagged GCAAACUAUCAAAUCUGUGU RNA (unknown origin) assessed as induction of crosslinking by measuring heteroduplex formation at 4 uM measured after 24 hrs by bromophenol blue staining-based denaturing PAGE analysis; type: nucleic-acid assay
Nucleic Acid [14] = experiment: Binding affinity to 5'-end FAM-tagged GACCAACCCCAAUCUGGUU RNA (unknown origin) assessed as induction of crosslinking by measuring heteroduplex formation at 4 uM measured after 24 hrs by bromophenol blue staining-based denaturing PAGE analysis relative to control; type: nucleic-acid assay
Nucleic Acid [15] = experiment: Binding affinity to 5'-end FAM-tagged GACCAAUCCCAAUCUGGUU RNA (unknown origin) assessed as induction of crosslinking by measuring heteroduplex formation at 4 uM measured after 24 hrs by bromophenol blue staining-based denaturing PAGE analysis relative to control; type: nucleic-acid assay
Nucleic Acid [16] = experiment: Binding affinity to 5'-end FAM-tagged GACCAAACCCAATCTGGTT DNA (unknown origin) assessed as induction of crosslinking by measuring heteroduplex formation at 4 uM measured after 24 hrs by bromophenol blue staining-based denaturing PAGE analysis relative to control; type: nucleic-acid assay
unidentified [17] = experiment: Binding affinity to 5'-end FAM-tagged GACCAATCCCAATCTGGTT DNA (unknown origin) assessed as melting temperature at 1.5 uM measured after 5 mins by UV spectrophotometry (reference value: 67.4 degC)
unidentified [18] = experiment: Binding affinity to 5'-end FAM-tagged GACCAAUCCCAAUCUGGUU RNA (unknown origin) assessed as melting temperature at 1.5 uM measured after 5 mins by UV spectrophotometry (reference value: 77.1 degC)
Nucleic Acid [19] = experiment: Binding affinity to 5'-end FAM-tagged GACCAAGCCCAATCTGGTT DNA (unknown origin) assessed as induction of crosslinking by measuring heteroduplex formation at 4 uM measured after 24 hrs by bromophenol blue staining-based denaturing PAGE analysis relative to control; type: nucleic-acid assay
Nucleic Acid [20] = experiment: Binding affinity to 5'-end FAM-tagged GACCAAGCCCAAUCUGGUU RNA (unknown origin) assessed as induction of crosslinking by measuring heteroduplex formation at 4 uM measured after 24 hrs by bromophenol blue staining-based denaturing PAGE analysis relative to control; type: nucleic-acid assay
Nucleic Acid [21] = experiment: Binding affinity to 5'-end FAM-tagged GACCAACCCCAATCTGGTT DNA (unknown origin) assessed as induction of crosslinking by measuring heteroduplex formation at 4 uM measured after 24 hrs by bromophenol blue staining-based denaturing PAGE analysis relative to control; type: nucleic-acid assay
Nucleic Acid [22] = experiment: Binding affinity to 5'-end FAM-tagged GACCAAACCCAAUCUGGUU RNA (unknown origin) assessed as induction of crosslinking by measuring heteroduplex formation at 4 uM measured after 24 hrs by bromophenol blue staining-based denaturing PAGE analysis relative to control; type: nucleic-acid assay
Nucleic Acid [23] = experiment: Binding affinity to 5'-end FAM-tagged GACCAATCCCAATCTGGTT DNA (unknown origin) assessed as induction of crosslinking by measuring heteroduplex formation at 4 uM measured after 24 hrs by bromophenol blue staining-based denaturing PAGE analysis relative to control; type: nucleic-acid assay
Nucleic Acid [24] = experiment: Binding affinity to 5'-end FAM-tagged GUGGUAACAGUGUGAGGU RNA (unknown origin) assessed as induction of crosslinking by measuring heteroduplex formation at 4 uM measured after 24 hrs by bromophenol blue staining-based denaturing PAGE analysis; type: nucleic-acid assay
Nucleic Acid [25] = experiment: Binding affinity to synthetic 5'-fluorescein-labelled pre-miR-122 RNA site2 (unknown origin) assessed as heteroduplex formation at 4 uM measured after 48 hrs by non-denaturing PAGE analysis relative to control; type: nucleic-acid assay
Nucleic Acid [26] = experiment: Binding affinity to synthetic 5'-FAM-labelled pre-miR-122 RNA site2 (unknown origin) assessed as heteroduplex formation at 4 uM measured after 2 hrs by denaturing PAGE analysis relative to control; type: nucleic-acid assay
Nucleic Acid [27] = experiment: Binding affinity to synthetic 5'-FAM-labelled pre-miR-122 RNA site2 (unknown origin) assessed as human dicer-mediated digestion of pre-miR-122 RNA preincubated with RNA for 2 days followed by dicer addition measured after 2 hrs by denaturing PAGE analysis; type: nucleic-acid assay
Nucleic Acid [28] = experiment: Binding affinity to synthetic 5'-FAM-labelled pre-miR-122 RNA site2 (unknown origin) assessed as inhibition of human dicer-mediated digestion of pre-miR-122 RNA preincubated with RNA for 2 days followed by dicer addition measured after 2 hrs by denaturing PAGE analysis relative to control; type: nucleic-acid assay; details: concentration not given here
Nucleic Acid [29] = experiment: Binding affinity to synthetic 5'-FAM-labelled pre-miR-122 RNA site1 (unknown origin) assessed as inhibition of human dicer-mediated digestion of pre-miR-122 RNA preincubated with RNA for 2 days followed by dicer addition measured after 2 hrs by denaturing PAGE analysis relative to control; type: nucleic-acid assay; details: concentration not given here
Nucleic Acid [30] = experiment: Binding affinity to synthetic 5'-FAM-labelled pre-miR-122 RNA site1 (unknown origin) assessed as human dicer-mediated digestion of pre-miR-122 RNA preincubated with RNA for 2 days followed by dicer addition measured after 2 hrs by denaturing PAGE analysis; type: nucleic-acid assay
Nucleic Acid [31] = experiment: Binding affinity to synthetic 5'-FAM-labelled pre-miR-122 RNA site1 (unknown origin) assessed as heteroduplex formation at 4 uM measured after 2 hrs by denaturing PAGE analysis relative to control; type: nucleic-acid assay
Nucleic Acid [32] = experiment: Binding affinity to 5'-end FAM-tagged CACUAUUACCGCAAACUAUC RNA (unknown origin) assessed as induction of crosslinking by measuring heteroduplex formation at 4 uM measured after 24 hrs by bromophenol blue staining-based denaturing PAGE analysis; type: nucleic-acid assay
Nucleic Acid [33] = experiment: Binding affinity to synthetic 5'-fluorescein-labelled pre-miR-122 RNA site1 (unknown origin) assessed as heteroduplex formation at 4 uM measured after 48 hrs by non-denaturing PAGE analysis relative to control; type: nucleic-acid assay

SMILES: CSCCc1nc(N)nc2c1ncn2CC(=O)N(CCNC(C)=O)CC(=O)NCCN(CC(=O)NCCN(CC(=O)NCCN(CC(=O)NCCN(CC(=O)NCCN(CC(=O)NCCN(CC(=O)NCCN(CC(=O)NCCN(CC(=O)NCCN(CC(=O)NCCN(CC(=O)NCCN(CC(=O)N[C@@H](CCCNC(=N)N)C(=O)N[C@@H](CCCNC(=N)N)C(=O)NCC(N)=O)C(=O)Cn1cnc2c(=O)[nH]c(N)nc21)C(=O)Cn1cnc2c(N)ncnc21)C(=O)Cn1cc(C)c(=O)[nH]c1=O)C(=O)Cn1cc(C)c(=O)[nH]c1=O)C(=O)Cn1cnc2c(=O)[nH]c(N)nc21)C(=O)Cn1cnc2c(=O)[nH]c(N)nc21)C(=O)Cn1cnc2c(=O)[nH]c(N)nc21)C(=O)Cn1cnc2c(N)ncnc21)C(=O)Cn1cc(C)c(=O)[nH]c1=O)C(=O)Cn1cc(C)c(=O)[nH]c1=O)C(=O)Cn1cnc2c(=O)[nH]c(N)nc21
- ΔTm [1]: -2.7 °C
- ΔTm [2]: -4.2 °C
- ΔTm [3]: -1.9 °C
- ΔTm [4]: -1.1 °C
- ΔTm [5]: -2.5 °C
- ΔTm [6]: -2.3 °C
- ΔTm [7]: -1.7 °C
- ΔTm [8]: -2.1 °C

SMILES: Cc1cn(CC(=O)N(CCNC(=O)CN(CCNC(=O)CN(CCNC(=O)CN(CCNC(=O)CN(CCNC(=O)CN(CCN)C(=O)Cn2cnc3c(N)ncnc32)C(=O)Cn2cc(C)c(=O)[nH]c2=O)C(=O)Cn2cnc3c(N)ncnc32)C(=O)Cn2cnc3c(=O)[nH]c(N)nc32)C(=O)Cn2cc(C)c(=O)[nH]c2=O)CC(=O)NCCN(CC(=O)NCCN(CC(=O)NCCN(CC(=O)NCCN(CC(=O)NCCN(CC(=O)NCCN(CC(=O)NCCN(CC(=O)N[C@@H](CCCNC(=N)N)C(=O)O)C(=O)Cn2ccc(N)nc2=O)C(=O)Cn2cnc3c(N)ncnc32)C(=O)Cn2ccc(N)nc2=O)C(=O)Cn2cnc3c(N)ncnc32)C(=O)Cn2cnc3c(=O)[nH]c(N)nc32)C(=O)Cn2cnc3c(N)ncnc32)C(=O)Cn2cc(C)c(=O)[nH]c2=O)c(=O)[nH]c1=O
- Activity (Nucleic Acid [9]): 75%
- inhibition (Nucleic Acid [10]): 47%
- Activity (Nucleic Acid [11]): 0%
- Activity (Nucleic Acid [12]): 53%
- Activity (Nucleic Acid [13]): Active

SMILES: C=Cc1nc(N)nc2c1ncn2CC(=O)N(CCNC(=O)CN(CCNC(=O)CN(CCNC(=O)CN(CCNC(C)=O)C(=O)Cn1cnc2c(=O)[nH]c(N)nc21)C(=O)Cn1cc(C)c(=O)[nH]c1=O)C(=O)Cn1cc(C)c(=O)[nH]c1=O)CC(=O)NCCN(CC(=O)NCCN(CC(=O)NCCN(CC(=O)NCCN(CC(=O)NCCN(CC(=O)NCCN(CC(=O)NCCN(CC(=O)N[C@@H](CCCNC(=N)N)C(=O)N[C@@H](CCCNC(=N)N)C(=O)NCC(N)=O)C(=O)Cn1cnc2c(=O)[nH]c(N)nc21)C(=O)Cn1cnc2c(N)ncnc21)C(=O)Cn1cc(C)c(=O)[nH]c1=O)C(=O)Cn1cc(C)c(=O)[nH]c1=O)C(=O)Cn1cnc2c(=O)[nH]c(N)nc21)C(=O)Cn1cnc2c(=O)[nH]c(N)nc21)C(=O)Cn1cnc2c(=O)[nH]c(N)nc21
- Activity (Nucleic Acid [14]): 0%
- Activity (Nucleic Acid [15]): 2%
- Activity (Nucleic Acid [16]): 0%
- Tm (unidentified [17]): 77.3 °C
- Tm (unidentified [18]): 83 °C
- Activity (Nucleic Acid [19]): 7%
- Activity (Nucleic Acid [20]): 4%
- Activity (Nucleic Acid [21]): 1%
- Activity (Nucleic Acid [22]): 0%
- Activity (Nucleic Acid [23]): 3%

SMILES: Cc1cn(CC(=O)N(CCNC(=O)CN(CCNC(=O)CN(CCNC(=O)CN(CCNC(=O)CN(CCNC(=O)CN(CCNC(=O)CN(CCNC(=O)CN(CCNC(=O)CN(CCNC(=O)CN(CCNC(=O)CN(CCN)C(=O)Cn2cnc3c(N)ncnc32)C(=O)Cn2cc(C)c(=O)[nH]c2=O)C(=O)Cn2cc(C)c(=O)[nH]c2=O)C(=O)Cn2cnc3c(=O)[nH]c(N)nc32)C(=O)Cn2cc(C)c(=O)[nH]c2=O)C(=O)Cn2ccc(N)nc2=O)C(=O)Cn2cnc3c(N)ncnc32)C(=O)Cn2ccc(N)nc2=O)C(=O)Cn2cnc3c(N)ncnc32)C(=O)Cn2ccc(N)nc2=O)CC(=O)NCCN(CC(=O)NCCN(CC(=O)N[C@@H](CCCNC(=N)N)C(=O)O)C(=O)Cn2ccc(N)nc2=O)C(=O)Cn2ccc(N)nc2=O)c(=O)[nH]c1=O
- Activity (Nucleic Acid [24]): Active
- Activity (Nucleic Acid [25]): 28%
- Activity (Nucleic Acid [26]): 0%
- Activity (Nucleic Acid [27]): 78%
- inhibition (Nucleic Acid [28]): 22%

SMILES: Cc1cn(CC(=O)N(CCNC(=O)CN(CCNC(=O)CN(CCNC(=O)CN(CCNC(=O)CN(CCNC(=O)CN(CCNC(=O)CN(CCNC(=O)CN(CCN)C(=O)Cn2cnc3c(N)ncnc32)C(=O)Cn2cc(C)c(=O)[nH]c2=O)C(=O)Cn2cnc3c(=O)[nH]c(N)nc32)C(=O)Cn2cnc3c(=O)[nH]c(N)nc32)C(=O)Cn2ccc(N)nc2=O)C(=O)Cn2cnc3c(=O)[nH]c(N)nc32)C(=O)Cn2cc(C)c(=O)[nH]c2=O)CC(=O)NCCN(CC(=O)NCCN(CC(=O)NCCN(CC(=O)NCCN(CC(=O)NCCN(CC(=O)N[C@@H](CCCNC(=N)N)C(=O)O)C(=O)Cn2cnc3c(N)ncnc32)C(=O)Cn2cc(C)c(=O)[nH]c2=O)C(=O)Cn2cnc3c(N)ncnc32)C(=O)Cn2cnc3c(=O)[nH]c(N)nc32)C(=O)Cn2cc(C)c(=O)[nH]c2=O)c(=O)[nH]c1=O
- inhibition (Nucleic Acid [29]): 9%
- Activity (Nucleic Acid [30]): 91%
- Activity (Nucleic Acid [31]): 0%
- Activity (Nucleic Acid [32]): Active
- Activity (Nucleic Acid [33]): 16%
